One assay concerns Erk. Nature of the assay: PDGF BB-induced MAP kinase activation in VSMC, immunoprecipitation analysis. In kind it is cell-based. The conditions noted are these: human VSMC. As for the experimental part: (§1) To further examine the signalling pathway mediating the effect of this phytoestrogen in VSMC, the effect of Cpd. 7 on mitogen-activated protein (MAP) kinases (Erk, JUNK, p38) was determined by immunoprecipitation analysis and on early growth response genes (Egr-1, Sp-1) by Western blotting. […] 7 in a dose-dependent manner, while JUNK and p38 activity were not affected by either PDGF BB or Cpd. 7, though the cells strongly expressed both proteins as well as Erk. Egr-1 or Sp-1 proteins were not altered by either PDGF-BB or Cpd. 7.

The next assay concerns p38. Nature of the assay: MAP kinase activity in VSMC, immunoprecipitation analysis. In kind it is cell-based. The conditions noted are these: human VSMC. As for the experimental part: as §1
The next assay deals with JUNK. Described as above. It is filed as cell-based. The settings on record: human VSMC. As for the experimental part: as §1
A further assay concerns Sp-1. Nature of the assay: Early growth response gene protein in VSMC, Western blotting. It is filed as cell-based. The settings on record: human VSMC. The procedure: as §1
For orientation: A western blot detects proteins with antibodies after separation by electrophoresis.

In the next assay the test system is Egr-1. Described as above. The settings on record: human VSMC. It is filed as cell-based. As for the experimental part:
as §1

Assay [1] concerns rat isolated aortic rings. Nature of the assay: Protection against endothelium damage induced by oxidised LDL, acetylcholine dilatation (Protocol 3). The procedure: Male Sprague-Dawley rats (250±50 g) were gassed with 80% CO2 and 20% O2 until killed. The thoracic aorta was excised and quickly placed in ice-cold Krebs modified solution composed of NaCl […], […] 4.7 mM, MgSO4 7H2O 1.17 mM, NaHCO3 25 mM, KH2PO4 1.18 mM, CaCl2 2.5 mM, glucose 11 mM and EDTA 0.03 mM. It was then trimmed of fat and connective tissue and cut into 2-3 mm wide rings. Each ring was mounted on two parallel stainless steel hooks in a single water-jacketed 3 ml organ bath containing modified Krebs solution maintained at 37° C. and bubbled with 95% O2 plus 5% CO2. The lower hook was attached to a movable support leg and the upper hook to an FTO3 force transducer (Grass Scientific Instruments, Mitutoyo, Japan) for isometric recordings. Changes in force were amplified (Quadbridge amplifier, Scientific Concepts Inc., Victoria, Australia) and recorded on a MacLab 8E data acquisition system (Adinstruments Pty Ltd., NSW, Australia) linked to an Apple computer (Apple Computer Inc, Cupertina, Calif.). Rings were set at an initial tension of 2 g and allowed to equilibrate for 30 minutes after which time they were re-set to 2 g tension before the commencement of each experimental protocol.
Full concentration response curves to phenylephrine were constructed from which the concentration giving a submaximal contraction of approximately 80% was selected (usually 0.3 μM). Tissues were then constricted with phenylephrine at the selected concentration and allowed to plateau. Full concentration dilatory curves were then constructed to acetylcholine. […]
Human plasma was obtained from the blood bank. […] The protein content of the final LDL fraction obtained was determined by the simplified protein assay method of Lowry. […]
Contractile responses are expressed in g tension (mean+standard error of the mean). Dilatory responses are expressed as a percentage of the contractile force generated by the pre-constricting agent used. […]

Assay [2] concerns Human umbilical vein endothelial cells. Nature of the assay: Endothelial cell migration (wound) assay. In kind it is cell-based. Further details: dose or concentration left out as unconfirmed. The conditions noted are these: after 30 hours. As for the experimental part: Human umbilical vein endothelial cells between passage 1 and 3 were used. They were grown in gelatin coated flasks in medium 199 with Earle's Salts supplemented with 20% foetal calf serum, 25 mg/ml endothelial cell growth supplement and 25 mg/ml heparin.
5×10^5 cells per well in growth medium were plated onto fibronectin coated 6 well trays and grown to confluence. A wound was produced along the monolayer with the use of a cell scraper (Costar). The cells were then washed once and fresh medium with the test compounds was added. Defined points along the wound were marked using an ink condenser (Olympus microscopes) allowing the movement of cells to be visualized at constant points over the next 48 hours. Photographs were taken at relevant times and the degree of cell movement from the wound front assessed.

Entries after “also recorded” stand apart in the source; their conditions may differ.

Take `Oc1ccc(C2COc3cc(O)ccc3C2O)cc1` (centres unmarked) [Cpd. 7]: the “PDGF BB-induced Erk activation” value in the assay with Erk is on record as “significantly inhibited by Cpd. 7 in a dose-dependent manner”. For the same compound, the p38 activity entry with p38 is listed as “not affected”. For the same compound, the JUNK activity entry with JUNK is “not affected”. In addition, the Sp-1 protein entry in the assay with Sp-1 is “not altered”. Also, in the assay on Egr-1, the Egr-1 protein result is recorded as “not altered”.
As for `Oc1ccc(C2COc3cc(O)ccc3C2O)cc1` (centres unmarked) [Cpd. 8], the “potency of protective effect against ox-LDL relative to 17β-estradiol” value in assay [1] was “at least 10 times”. Besides, the “protective effect against ox-LDL inhibition of acetylcholine dilatation (in words)” value in assay [1] (ox-LDL 0.3 mg protein/ml, β-estradiol 10 pg/ml, Cpd. 5 300 ng/ml, Cpd. 7 1 μg/ml, Cpd. 8 and 12 3 μg/ml) is listed as “diminished the inhibitory effect of ox-LDL; also recorded: significantly protects against endothelium damage by oxidized LDL”.
For `Oc1ccc(C2=Cc3ccc(O)cc3OC2)cc1` [Cpd. 12], in assay [2], the “endothelial cell migration towards the wound” value is reported as “markedly inhibited endothelial cell migration”.

The values are drawn from patent publication US20050119301A1, “Treatment of restenosis” (priority 2001, published 2005).
